# Test results reported in EP4789680A1, “NOVEL PACE4 INHIBITOR AND USE THEREOF IN ANTI-OSTEOARTHRITIS” (Inflamax Pharmaceuticals Limited, priority 2023, dated 2025).
# Where a SMILES comes first, the peptide text is derived from it. Where no end group is shown, it is not given here. [ ]: non-standard residue; d: D form. ξ: configuration not given here. Abu(1-amidino-4-piperidyl) = N=C(N)N1CCC(CC[C@H](N)C(=O)O)CC1; Phe(4-guanidino) = N=C(N)Nc1ccc(C[C@H](N)C(=O)O)cc1; Phe(4-CF3) = N[C@@H](Cc1ccc(C(F)(F)F)cc1)C(=O)O; dThr(3ξ) = CC(O)[C@@H](N)C(=O)O
# T1: PACE4 (Homo sapiens, UniProt P29122)
# T1 sequence (P29122 150-969): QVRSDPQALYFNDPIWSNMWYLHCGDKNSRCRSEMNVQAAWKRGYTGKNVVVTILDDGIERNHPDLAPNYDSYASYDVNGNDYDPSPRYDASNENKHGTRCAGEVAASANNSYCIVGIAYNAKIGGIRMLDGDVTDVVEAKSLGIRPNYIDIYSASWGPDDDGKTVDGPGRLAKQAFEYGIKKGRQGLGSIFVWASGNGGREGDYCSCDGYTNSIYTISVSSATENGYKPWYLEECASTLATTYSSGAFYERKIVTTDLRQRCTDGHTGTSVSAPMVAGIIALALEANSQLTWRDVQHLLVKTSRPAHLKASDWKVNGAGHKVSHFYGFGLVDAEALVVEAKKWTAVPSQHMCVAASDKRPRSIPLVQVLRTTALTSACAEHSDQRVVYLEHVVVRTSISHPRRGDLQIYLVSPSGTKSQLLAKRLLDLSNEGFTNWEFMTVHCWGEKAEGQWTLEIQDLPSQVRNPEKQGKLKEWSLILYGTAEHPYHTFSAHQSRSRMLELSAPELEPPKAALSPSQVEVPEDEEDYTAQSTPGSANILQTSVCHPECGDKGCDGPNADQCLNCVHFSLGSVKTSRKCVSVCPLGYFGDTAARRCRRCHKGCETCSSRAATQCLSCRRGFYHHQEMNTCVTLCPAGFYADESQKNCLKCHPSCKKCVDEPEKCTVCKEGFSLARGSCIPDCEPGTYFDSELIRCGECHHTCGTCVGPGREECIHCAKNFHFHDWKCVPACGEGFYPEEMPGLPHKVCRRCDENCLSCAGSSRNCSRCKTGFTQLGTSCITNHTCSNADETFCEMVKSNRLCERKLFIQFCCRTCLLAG
# T2: PACE4 (UniProt P29122 150-969, limits assumed)
# T2 sequence (looked up): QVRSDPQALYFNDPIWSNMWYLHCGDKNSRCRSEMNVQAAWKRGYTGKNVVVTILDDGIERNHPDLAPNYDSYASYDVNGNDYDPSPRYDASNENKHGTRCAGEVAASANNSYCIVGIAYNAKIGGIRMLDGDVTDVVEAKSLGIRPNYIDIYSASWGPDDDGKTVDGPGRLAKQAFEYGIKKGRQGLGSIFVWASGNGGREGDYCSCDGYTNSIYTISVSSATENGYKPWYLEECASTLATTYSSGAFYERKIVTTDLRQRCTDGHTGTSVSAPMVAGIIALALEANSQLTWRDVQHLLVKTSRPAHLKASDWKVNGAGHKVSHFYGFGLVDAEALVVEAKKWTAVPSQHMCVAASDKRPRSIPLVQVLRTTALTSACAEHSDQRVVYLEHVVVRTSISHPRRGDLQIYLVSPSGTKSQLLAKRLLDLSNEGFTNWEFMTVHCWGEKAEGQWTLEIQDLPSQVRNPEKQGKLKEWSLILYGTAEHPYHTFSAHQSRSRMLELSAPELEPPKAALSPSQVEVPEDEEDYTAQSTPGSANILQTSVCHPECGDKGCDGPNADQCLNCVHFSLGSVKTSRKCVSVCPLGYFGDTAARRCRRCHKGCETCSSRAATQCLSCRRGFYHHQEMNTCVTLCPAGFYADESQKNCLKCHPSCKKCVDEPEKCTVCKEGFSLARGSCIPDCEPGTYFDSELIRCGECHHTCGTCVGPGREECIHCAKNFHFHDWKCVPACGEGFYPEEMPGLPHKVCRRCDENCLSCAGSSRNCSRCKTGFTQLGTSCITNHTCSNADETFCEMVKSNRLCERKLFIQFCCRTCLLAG
# Key:
# [1] = tested on: traumatic osteoarthritis model; test: MMT surgery traumatic osteoarthritis model, test for preventive efficacy; format: in vivo, SD rats; details: compared to the OA group; intra-articular injection 3 days and 1 day before MMT surgery; 0.1 mg/kg; sacrificed day 7
# Procedure: In this example, a traumatic osteoarthritis model was established by performing a medial meniscus tear (MMT) surgery to verify the preventive effect of the PACE4 inhibitory peptides on OA. In the test for preventive efficacy, the PACE4 inhibitory peptide was administered via intra-articular injection 3 days and 1 day before the modeling surgery (i.e., a total of 2 administrations). In the following examples, the dosage of PACE4 inhibitory peptide was 0.1 mg/kg animal body weight.
# Specifically, in the test for preventive efficacy, 24 SD rats were divided into 3 groups (including a control group, an OA modeling group (surgery group), and an OA modeling + preventive administration group (surgery group + drug intervention)), with 8 rats per group. For the OA modeling + preventive administration group, intra-articular injections were administered 3 days and 1 day before MMT surgery. Rats in each group were sacrificed on day 7 after modeling, and joint tissues were collected. Each PACE4 inhibitory peptide was tested individually to determine the preventive effect of each PACE4 inhibitory peptide. Among them, the polypeptide Ac-R-F-K-R-NH2 (control molecule) was selected as a control example. […]
# [2] = tested on: traumatic osteoarthritis model; test: MMT surgery traumatic osteoarthritis model, test for therapeutic efficacy; format: in vivo, Sprague Dawley (SD) rats; details: compared to the OA group; intra-articular injection on day 3 and day 10 after MMT surgery; sacrificed day 14
# Procedure: In this example, a traumatic osteoarthritis model was established by performing a medial meniscus tear (MMT) surgery to verify the therapeutic effect of the PACE4 inhibitory peptides on OA. In the test for therapeutic efficacy, the injections were administered on day 3 and day 10 after the surgical modeling (i.e., a total of 2 administrations).
# Specifically, in the test for therapeutic efficacy, 24 Sprague Dawley (SD) rats were divided into 3 groups (including a control group, an OA modeling group (surgery group), and an OA modeling + therapeutic administration group (surgery group + drug intervention)), with 8 rats per group. For the OA modeling + therapeutic administration group, intra-articular injections were administered on day 3 and day 10 after MMT surgery. Rats in each group were sacrificed on day 14 after modeling, and joint tissues were collected. Each PACE4 inhibitory peptide was tested individually to determine the therapeutic effect of each PACE4 inhibitory peptide. Among them, the polypeptide Ac-R-F-K-R-NH2 (control molecule) was selected as a control example.
# Cartilage tissue was collected from each group as samples. The collected cartilage tissue samples were decalcified according to conventional procedures in the art, then embedded in paraffin, and sectioned at a thickness of 7 µm. Safranin O-fast green staining was performed, and the cartilage degeneration was assessed using OARSI scoring. In addition, TRAP staining was performed to determine the subchondral bone resorption in rats before and after MMT surgery and during treatment with the PACE4 inhibitory peptide.
# PACE4 [3] = target: T1, PACE4; test: PACE4 enzyme inhibition experiment (fluorogenic substrate, competitive inhibition); format: biochemical; details: substrate pyroGlu-Arg-Val-Lys-Arg-methyl-coumaryl-7-amide 100 µM, pH 6.5, 37°C, 60 min
# Procedure: The PACE4 inhibitory peptides obtained from the above example were subjected to in vitro assay of PACE4 inhibitory effect. The specific steps were as follows: the PACE4 enzyme inhibition experiment was performed in a solution containing 20 mM Bis-Tis at pH 6.5, 1 mM CaCl2, and 1.8 mg/mL BSA. All assays were performed using pyroGlu-Arg-Val-Lys-Arg-methyl-coumaryl-7-amide (Bachem, CA) (100 µM) as the substrate. The assay was conducted at 37°C for 60 min. A Gemini EM 96-well fluorescence spectrometer (Molecular Devices, CA) (Ex: 370 nm, Em: 460 nm) was used. The PACE4 inhibitory peptide involved in the present patent was added to the test solution at different concentrations for competitive inhibition assay to determine the IC50 value of the peptide.
# PACE4 [4] = target: T2, PACE4; test: cell-based or functional assay
molecule,measurement,setting,value
CC(=O)N[C@@H](CCCNC(=N)N)C(=O)N[C@@H](Cc1ccccc1)C(=O)N[C@@H](CCCCN)C(=O)N[C@@H](CCCNC(=N)N)C(N)=O [Ac-R-F-K-R-NH2] (Ac-RFKR-NH2),"OARSI score reduced, preventive test",[1],4%
same,"OARSI score reduced, therapeutic test",[2],10%
CC(=O)N[C@@H](CCCNC(=N)N)C(=O)N[C@@H](CCCNC(=N)N)C(=O)N[C@@H](CCC1CCN(C(=N)N)CC1)C(=O)N[C@@H](CCCCN)C(=O)N[C@@H](CCCNC(=N)N)C(=O)N[C@@H](C(N)=O)C(C)O (stereo partly drawn) [Ac-R-R-A(4-Pip)-K-R-dT-NH2] (Ac-RR[Abu(1-amidino-4-piperidyl)]KR[dThr(3ξ)]-NH2),IC50,PACE4 [3],0.09 µM
CC(=O)N[C@@H](CCCNC(=N)N)C(=O)N[C@@H](CCCNC(=N)N)C(=O)N[C@@H](Cc1ccc(C(F)(F)F)cc1)C(=O)N[C@@H](CCCCN)C(=O)N[C@@H](CCCNC(=N)N)C(=O)N[C@@H](C(N)=O)[C@H](C)O [Ac-R-R-F(4-CF3)-K-R-dT-NH2] (Ac-RR[Phe(4-CF3)]KR[dT]-NH2),IC50,PACE4 [3],0.09 µM
CC(=O)N[C@H](CCCNC(=N)N)C(=O)N[C@@H](CCCNC(=N)N)C(=O)N[C@@H](Cc1ccc(C(F)(F)F)cc1)C(=O)N[C@@H](CCCCN)C(=O)N[C@@H](CCCNC(=N)N)C(=O)N[C@@H](C(N)=O)[C@H](C)O [Ac-dR-R-F(4-CF3)-K-R-dT-NH2] (Ac-[dR]R[Phe(4-CF3)]KR[dT]-NH2),"OARSI score reduced, therapeutic test",[2],34.6%
CC(=O)N[C@H](CCCNC(=N)N)C(=O)N[C@@H](CCCNC(=N)N)C(=O)N[C@@H](Cc1ccc(NC(=N)N)cc1)C(=O)N[C@@H](CCCCN)C(=O)N[C@@H](CCCNC(=N)N)C(=O)N[C@@H](C(N)=O)[C@H](C)O [Ac-dR-R-F(4-Guan)-K-R-dT-NH2] (Ac-[dR]R[Phe(4-guanidino)]KR[dT]-NH2),"OARSI score reduced, therapeutic test",[2],38.5%
CC(=O)N[C@H](CCCNC(=N)N)C(=O)N[C@@H](CCCNC(=N)N)C(=O)N[C@@H](Cc1ccccc1)C(=O)N[C@@H](CCCCN)C(=O)N[C@@H](CCCNC(=N)N)C(=O)N[C@@H](C(N)=O)[C@H](C)O [Ac-dR-R-F-K-R-dT-NH2] (Ac-[dR]RFKR[dT]-NH2),"OARSI score reduced, therapeutic test",[2],28%
C[C@H](O)[C@@H](NC(=O)[C@H](CCCNC(=N)N)NC(=O)[C@H](CCCCN)NC(=O)[C@H](Cc1ccc(C(F)(F)F)cc1)NC(=O)[C@H](CCCNC(=N)N)NC(=O)[C@@H](CCCNC(=N)N)NC(=O)[C@@H]1CCCN1)C(N)=O [P-dR-R-F(4-CF3)-K-R-dT-NH2] (H-P[dR]R[Phe(4-CF3)]KR[dT]-NH2),IC50,PACE4 [3],0.02 µM
C[C@H](O)[C@@H](NC(=O)[C@H](CCCNC(=N)N)NC(=O)[C@H](CCCCN)NC(=O)[C@H](Cc1ccccc1)NC(=O)[C@H](CCCNC(=N)N)NC(=O)[C@@H](CCCNC(=N)N)NC(=O)[C@@H]1CCCN1)C(N)=O [P-dR-R-F-K-R-dT-NH2] (H-P[dR]RFKR[dT]-NH2),IC50,PACE4 [3],0.02 µM
C[C@H](O)[C@@H](NC(=O)[C@H](CCCNC(=N)N)NC(=O)[C@H](CCCCN)NC(=O)[C@H](Cc1ccccc1)NC(=O)[C@H](CCCNC(=N)N)NC(=O)[C@@H](CCCNC(=N)N)NC(=O)[C@H]1CCCN1)C(N)=O [dP-dR-R-F-K-R-dT-NH2] (H-[dP][dR]RFKR[dT]-NH2),IC50,PACE4 [3],0.07 µM
"C[C@H](O)[C@@H](NC(=O)[C@H](CCCNC(=N)N)NC(=O)[C@H](CCCCN)NC(=O)[C@H](Cc1ccc(C(F)(F)F)cc1)NC(=O)[C@H](CCCNC(=N)N)NC(=O)[C@@H](CCCNC(=N)N)NC(=O)[C@H]1CCCN1)C(N)=O [dP-dR-RF(4-CF3)-K-R-dT-NH2, dP-dR-R-F(4-CF3)-K-R-dT-NH2] (H-[dP][dR]R[Phe(4-CF3)]KR[dT]-NH2)",IC50,PACE4 [3],0.02 µM
[dP][dR]RFKR[dT]-NH2 (N-terminus assumed; SMILES C[C@H](O)[C@@H](NC(=O)[C@H](CCCNC(=N)N)NC(=O)[C@H](CCCCN)NC(=O)[C@H](Cc1ccccc1)NC(=O)[C@H](CCCNC(=N)N)NC(=O)[C@@H](CCCNC(=N)N)NC(=O)[C@H]1CCCN1)C(N)=O) [dP-dR-R-F-K-R-dT-NH2],"IC50 (µM), PACE4 enzyme inhibition, fluorogenic substrate pyroGlu-Arg-Val-Lys-Arg-methyl-coumaryl-7-amide",PACE4 [4],0.07 µM
P[dR]RFKR[dT]-NH2 (N-terminus assumed; SMILES C[C@H](O)[C@@H](NC(=O)[C@H](CCCNC(=N)N)NC(=O)[C@H](CCCCN)NC(=O)[C@H](Cc1ccccc1)NC(=O)[C@H](CCCNC(=N)N)NC(=O)[C@@H](CCCNC(=N)N)NC(=O)[C@@H]1CCCN1)C(N)=O) [P-dR-R-F-K-R-dT-NH2],"IC50 (µM), PACE4 enzyme inhibition, fluorogenic substrate pyroGlu-Arg-Val-Lys-Arg-methyl-coumaryl-7-amide",PACE4 [4],0.02 µM
Ac-R[Phe(4-CF3)]KR[dT]-NH2 (SMILES CC(=O)N[C@@H](CCCNC(=N)N)C(=O)N[C@@H](Cc1ccc(C(F)(F)F)cc1)C(=O)N[C@@H](CCCCN)C(=O)N[C@@H](CCCNC(=N)N)C(=O)N[C@@H](C(N)=O)[C@H](C)O) [Ac-R-F(4-CF3)-K-R-dT-NH2],"IC50 (µM), PACE4 enzyme inhibition, fluorogenic substrate pyroGlu-Arg-Val-Lys-Arg-methyl-coumaryl-7-amide",PACE4 [4],0.35 µM
Ac-R[Phe(4-CF3)]KRT-NH2 (SMILES CC(=O)N[C@@H](CCCNC(=N)N)C(=O)N[C@@H](Cc1ccc(C(F)(F)F)cc1)C(=O)N[C@@H](CCCCN)C(=O)N[C@@H](CCCNC(=N)N)C(=O)N[C@H](C(N)=O)[C@@H](C)O) [Ac-R-F(4-CF3)-K-R-T-NH2],"IC50 (µM), PACE4 enzyme inhibition, fluorogenic substrate pyroGlu-Arg-Val-Lys-Arg-methyl-coumaryl-7-amide",PACE4 [4],0.74 µM
